The values that follow come from patent US20180353461A1, “USE OF CANNABINOIDS AS CERAMIDE-GENERATING ANTICANCER AGENTS IN TUMORS OF THE HEMATOPOIETIC AND LYMPHOID TISSUES” (priority 2014, published 2018).

What all share (format): cell-based, human
The test system of one test is U266 cells. Kind of test: Western blot of signaling pathways (MAPKs, Akt) in U266 cells. On the procedure: Protein analyses were performed by Western blot in several sets of assays: expression pattern of CBs-receptors in MM cell lines and primary cells, and time course after treatment with cannabinoids in MM cell lines. Time-course assays were performed at 0, 2, 6, 18 and 24 hours. Anyway, obtaining cell lysates was conducted according to a protocol adapted to phosphorylation-dependent signaling, described by Gilbert et al. (2002). Briefly, 10e7 cells per condition were harvested at indicated times, washed with iced-cold PBS and lysate in isotonic lysis buffer 30 min keeping on ice. Isotonic lysis buffer contained 2% ASB-14 (CalbioChem, San Diego, Calif., USA),1% Nonidet P-40 (Ipegal®), 137 mM NaCl, 20mM Tris-HCl pH 7.5 at 4° C. (all from Sigma-Aldrich), 2 mM Na3VO4, 20 mM NaF (New England BioLabs Inc., Ipswich, Mass., USA), 2 mM DTT (AppliChem, Darmstadt, Germany), protease inhibitor cocktail (Roche Diagnostics GmbH, Mannheim, Germany), and 10 ul Nuclease Mix (Amersham GE Healthcare, Uppsala, Sweden). After lysis, samples were centrifuged at 13,000×g for 5 min at 4° C., and supernatants collected. Protein concentration in samples was determined by Pierce® Microplate BCA Protein Assay kit-Reducing Agent Compatible (Thermo Fisher Scientific). Before loading the samples in the gel, they were diluted in loading sample buffer (0.125 M Tris-HCl pH 6.8, 4% SDS, 20% glycerol, 0.02% Bromophenol Blue, 200 mM DTT) and the mixture was heated at 70° C. for 5 min in a thermoblock (LabNet International, N.J., USA).
Samples (15-25 ug/lane) were subjected to SDS/PAGE in pre-cast polyacrylamide gels AnykD (Bio-Rad Laboratories, Hercules, CA, USA) under reducing and denaturing conditions. Electrophoretic run was performed at a constant current of 15 mA per gel in a Mini-Protean® Tetra Cell (Bio-Rad Laboratories). Once proteins were separated by electrophoresis, were transferred onto PVDF membranes using Trans-Blot® Turbo™ System (Bio-Rad Laboratories). Electrotransference was conducted at constant amperage of 1.2 mA and at up to 25 V of voltage. The blotted membranes were then blocked with 2% bovine serum albumin [(BSA), Santa Cruz Biotechnology] in Tween-Tris buffer saline (TTBS) for 30 min with gentle agitation, and incubated overnight at 4° C. with corresponding primary antibody in TTBS. After twice washing with TTBS, membranes were incubated for 1-2 h at room temperature with suitable conjugated-HRP secondary antibody, and subjected to chemiluminescence detection using Western Blotting Luminol Reagent (Santa Cruz Biotechnology). Loading controls were carried out with an anti-beta-actin and anti-beta-tubulin antibodies (Sigma-Aldrich). Blots were captured using a digital imaging system ImageQuant LAS 4000 (Amersham GE Healthcare) and transferred to a digital image processing software to analyze (Adobe Photoshop CS2, version 9.0., Adobe Systems Inc., San Jose, Calif.).
Signaling pathways targeted by cannabinoids in myelomatous cells. To get further insights into the mechanisms of cannabinoids-induced apoptosis, we assessed the expression profile of phosphorylated-JNK, -Erk1/2, -p38 MAPK and -Akt by Western blot.

The subject of test [1] is HL60 cells. Kind of test: Western blot time course of apoptotic proteins in HL60 cells. On the procedure:
(§1) Protein analyses were performed by Western blot in several sets of assays: expression pattern of CBs-receptors in AML cell lines and primary cells, and time course after treatment with cannabinoids in AML cell lines.
(§2) Cells were solubilized with ice-cold lysis buffer containing 2% ASB-14 (CalbioChem, San Diego, Calif., USA), 1% Nonidet P-40 (Ipegal®), 137 mM NaCl, 20 mM Tris-HCl pH 7.5 at 4° C. (all from Sigma-Aldrich), 2 mM Na3VO4, 20 mM NaF (New England BioLabs Inc., Ipswich, Mass., USA), 2 mM DTT (AppliChem, Darmstadt, Germany), protease inhibitor cocktail (Roche Diagnostics GmbH, Mannheim, Germany), and 10 ul Nuclease Mix (Amersham GE Healthcare, Uppsala, Sweden). Insoluble materials were removed by centrifugation at 13,000×g for 15 min at 4° C. Protein content was determined by Pierce® Microplate BCA Protein Assay kit-Reducing Agent Compatible (Thermo Fisher Scientific).
(§3) Extracted proteins (15-25 ug/well) were separated by sodium dodecyl sulfate-polyacrylamide gel electrophoresis (SDS/PAGE) in pre-cast polyacrylamide gels AnykD (Bio-Rad Laboratories, Hercules, Calif., USA) under reducing and denaturing conditions. Electrophoretic run was performed at a constant current of 15 mA per gel in a Mini-Protean® Tetra Cell (Bio-Rad Laboratories) and were electrophoretically transferred onto PVDF membranes using Trans-Blot® Turbo™ System (Bio-Rad Laboratories). Blocking was performed with 2% bovine serum albumin [(BSA), Santa Cruz Biotechnology] in Tween-Tris buffer saline (TTBS). Membranes were incubated overnight at 4° C. with corresponding primary antibody in TTBS.
(§4) Detection was performed using Western Blotting Luminol Reagent (Santa Cruz Biotechnology).
As in the case of MM cells, the antiproliferative effect of cannabinoids in AML is mediated by apoptotic mechanisms. […] Next, we evaluated Casp-3 activation using an antibody that recognizes the active forms of Casp-3, this is, the […]. […]
A general note: A western blot detects proteins with antibodies after separation by electrophoresis.

Test [2] has as its system HL60 cells. Kind of test: Western blot of signaling pathways (MAPKs, Akt) in HL60 cells. The protocol:
as §1, §2, §3, §4
Signaling pathways targeted by cannabinoids in leukemic cells. To get further insights into the mechanisms of cannabinoids-induced apoptosis, we assessed the expression profile of phosphorylated-JNK, -Erk1/2, -p38 MAPK and -Akt by Western blot.

Turning to `CS(=O)(=O)O.Cc1c(C(=O)c2cccc3ccccc23)c2cccc3c2n1[C@H](CN1CCOCC1)CO3` [WIN-55, (R)-(+)-[2,3-dihydro-5-methyl-3-(4-morpholinylmethyl)-pyrrolo-[1,2,3]-1,4-benzoxazin-6-yl]-1-naphthalenylmethanone mesylate], in the test on U266 cells (U266), the “p-Akt at early time points” value is listed as “significant up-regulation”; the “p-Akt expression levels at later times” value is “sharp decline”; the “total Akt-expression, first 6 hours of exposure” value is listed as “remained unchanged”. In addition, in the test on U266 cells (U266, WIN-55 50 uM), the p-JNK entry is listed as “slightly up-regulated” and the “up-regulation of p-Erk1/2, compared with the slight up-regulation of p-JNK” value is “to a lesser extent”. In addition, the “p-p38 MAPK” value in the test on U266 cells (U266, time-dependent) is “moderately downregulated”. In the test with HL60 cells [1] (HL60, WIN-55 50 uM, time course), the “full-length PARP” value is reported as “decrease”. For the same molecule, in the test on HL60 cells [1] (HL60, time course), the “85 kDa fragment of PARP” value is reported as “increase” and the “expression of the active 12 kDa-cleaved form of Casp-3” value is on record as “increased over time”. Also, the p-Erk1/2 entry in the test on HL60 cells [2] (HL60, WIN-55 50 uM) is listed as “slightly up-regulated”. For the same molecule, in the test with HL60 cells [2] (HL60, time-dependent), the p-Akt entry is on record as “significantly downregulated” and the “p-p38 MAPK” value is recorded as “moderately downregulated”.
